Data: PMC10882719 (Frontiers in Neuroscience, 2024)
Where two headings read alike, the source gives them in different places.

Tests used:
Assay type in all cases: cell-based
168 GPCRs [1] = molecular target: T1, 168 GPCRs (Homo sapiens, UniProt Q9GZQ6); settings: NPFFR1
T1 construct: host or cells: PathHunter cell lines

168 GPCRs [2] = molecular target: T2, 168 GPCRs (Homo sapiens, UniProt P32238); settings: CCKAR
T2 construct: host or cells: PathHunter cell lines
T2 sequence (P32238 1-428): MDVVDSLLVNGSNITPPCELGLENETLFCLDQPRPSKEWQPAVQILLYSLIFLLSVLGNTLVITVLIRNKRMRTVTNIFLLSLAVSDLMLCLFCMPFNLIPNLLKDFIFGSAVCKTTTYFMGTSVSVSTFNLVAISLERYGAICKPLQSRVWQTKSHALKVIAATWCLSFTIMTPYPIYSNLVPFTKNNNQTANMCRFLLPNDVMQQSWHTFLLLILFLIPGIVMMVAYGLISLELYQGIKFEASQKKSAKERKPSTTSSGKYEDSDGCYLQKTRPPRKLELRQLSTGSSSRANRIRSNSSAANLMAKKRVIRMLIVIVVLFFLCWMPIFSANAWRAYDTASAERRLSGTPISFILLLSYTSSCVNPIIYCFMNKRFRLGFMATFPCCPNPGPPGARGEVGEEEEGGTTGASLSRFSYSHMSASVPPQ

168 GPCRs [3] = molecular target: T3, 168 GPCRs (Homo sapiens, UniProt O95136)
T3 construct: host or cells: PathHunter cell lines
T3 sequence (O95136 whole entry): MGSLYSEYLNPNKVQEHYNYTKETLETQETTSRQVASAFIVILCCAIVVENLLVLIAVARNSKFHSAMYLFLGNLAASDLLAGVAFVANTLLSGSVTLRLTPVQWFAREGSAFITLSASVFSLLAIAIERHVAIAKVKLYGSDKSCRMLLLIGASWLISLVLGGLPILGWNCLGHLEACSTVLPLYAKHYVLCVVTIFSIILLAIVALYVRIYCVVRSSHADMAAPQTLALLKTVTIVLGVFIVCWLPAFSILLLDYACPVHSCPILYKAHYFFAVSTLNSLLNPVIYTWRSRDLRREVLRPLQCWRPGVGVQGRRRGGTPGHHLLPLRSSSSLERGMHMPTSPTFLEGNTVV

168 GPCRs [4] = molecular target: T4, 168 GPCRs (Homo sapiens, UniProt P24530); settings: EDNRB
T4 construct: host or cells: PathHunter cell lines
T4 sequence (P24530 27-442): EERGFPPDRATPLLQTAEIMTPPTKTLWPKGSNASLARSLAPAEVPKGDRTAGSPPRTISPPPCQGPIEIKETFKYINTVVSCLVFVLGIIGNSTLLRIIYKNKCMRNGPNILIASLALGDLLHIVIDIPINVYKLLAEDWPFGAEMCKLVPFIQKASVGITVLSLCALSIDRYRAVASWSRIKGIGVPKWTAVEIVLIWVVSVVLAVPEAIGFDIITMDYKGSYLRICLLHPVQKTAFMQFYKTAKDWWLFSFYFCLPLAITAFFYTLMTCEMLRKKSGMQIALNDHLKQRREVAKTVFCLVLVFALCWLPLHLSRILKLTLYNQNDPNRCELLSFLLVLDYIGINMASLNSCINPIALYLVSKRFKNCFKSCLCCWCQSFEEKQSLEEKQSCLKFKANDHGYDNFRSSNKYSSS

168 GPCRs [5] = molecular target: T5, 168 GPCRs (Homo sapiens, UniProt P51679)
T5 construct: host or cells: PathHunter cell lines
T5 sequence (P51679 1-360): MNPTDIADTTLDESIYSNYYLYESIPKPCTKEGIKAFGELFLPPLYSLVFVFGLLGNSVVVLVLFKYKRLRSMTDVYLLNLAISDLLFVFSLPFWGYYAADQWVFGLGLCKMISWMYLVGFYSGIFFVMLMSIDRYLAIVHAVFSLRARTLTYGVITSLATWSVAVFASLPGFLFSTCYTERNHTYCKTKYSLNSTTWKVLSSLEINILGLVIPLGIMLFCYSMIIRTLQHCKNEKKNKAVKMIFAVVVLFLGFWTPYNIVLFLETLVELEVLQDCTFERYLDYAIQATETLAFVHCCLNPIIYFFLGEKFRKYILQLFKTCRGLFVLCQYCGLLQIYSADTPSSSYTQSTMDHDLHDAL

168 GPCRs [6] = molecular target: T6, 168 GPCRs (Homo sapiens, UniProt P51582); settings: P2RY4
T6 construct: host or cells: PathHunter cell lines
T6 sequence (P51582 whole entry): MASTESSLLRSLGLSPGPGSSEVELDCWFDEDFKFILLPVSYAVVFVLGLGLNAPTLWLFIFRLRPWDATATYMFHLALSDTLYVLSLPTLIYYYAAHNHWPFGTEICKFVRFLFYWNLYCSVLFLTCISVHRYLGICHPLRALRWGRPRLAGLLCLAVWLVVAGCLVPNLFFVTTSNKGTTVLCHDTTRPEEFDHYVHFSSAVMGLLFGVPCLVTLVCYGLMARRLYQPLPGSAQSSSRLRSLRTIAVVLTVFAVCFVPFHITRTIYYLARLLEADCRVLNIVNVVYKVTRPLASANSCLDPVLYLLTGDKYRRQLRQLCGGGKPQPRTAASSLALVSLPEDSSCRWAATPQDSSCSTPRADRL

168 GPCRs [7] = molecular target: T7, 168 GPCRs (Homo sapiens, UniProt P08908); settings: HTR1A
T7 construct: host or cells: PathHunter cell lines
T7 sequence (P08908 1-422): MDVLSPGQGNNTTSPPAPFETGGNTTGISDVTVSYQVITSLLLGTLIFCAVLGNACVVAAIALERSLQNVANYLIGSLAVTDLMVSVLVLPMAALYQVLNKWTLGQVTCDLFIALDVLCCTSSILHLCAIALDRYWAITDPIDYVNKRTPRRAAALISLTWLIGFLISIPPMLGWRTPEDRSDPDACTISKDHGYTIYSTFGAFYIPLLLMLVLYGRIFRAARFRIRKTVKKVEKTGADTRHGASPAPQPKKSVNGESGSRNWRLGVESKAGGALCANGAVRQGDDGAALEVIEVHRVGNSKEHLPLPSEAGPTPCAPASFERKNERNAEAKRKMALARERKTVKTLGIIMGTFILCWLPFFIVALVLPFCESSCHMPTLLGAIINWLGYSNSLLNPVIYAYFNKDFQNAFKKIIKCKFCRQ

168 GPCRs [8] = molecular target: T8, 168 GPCRs (Homo sapiens, UniProt Q8TDS4); settings: GPR109A
T8 construct: host or cells: PathHunter cell lines
T8 sequence (Q8TDS4 whole entry): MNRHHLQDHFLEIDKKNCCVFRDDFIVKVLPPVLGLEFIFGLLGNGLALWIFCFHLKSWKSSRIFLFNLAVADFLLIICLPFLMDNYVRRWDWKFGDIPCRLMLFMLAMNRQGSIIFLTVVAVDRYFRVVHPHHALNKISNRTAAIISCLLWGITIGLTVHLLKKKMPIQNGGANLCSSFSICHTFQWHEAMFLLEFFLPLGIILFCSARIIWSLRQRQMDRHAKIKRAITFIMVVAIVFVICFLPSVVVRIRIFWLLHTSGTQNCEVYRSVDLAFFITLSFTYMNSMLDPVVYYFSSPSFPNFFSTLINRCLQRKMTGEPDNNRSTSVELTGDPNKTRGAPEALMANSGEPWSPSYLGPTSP

T1 sequence (Q9GZQ6 whole entry): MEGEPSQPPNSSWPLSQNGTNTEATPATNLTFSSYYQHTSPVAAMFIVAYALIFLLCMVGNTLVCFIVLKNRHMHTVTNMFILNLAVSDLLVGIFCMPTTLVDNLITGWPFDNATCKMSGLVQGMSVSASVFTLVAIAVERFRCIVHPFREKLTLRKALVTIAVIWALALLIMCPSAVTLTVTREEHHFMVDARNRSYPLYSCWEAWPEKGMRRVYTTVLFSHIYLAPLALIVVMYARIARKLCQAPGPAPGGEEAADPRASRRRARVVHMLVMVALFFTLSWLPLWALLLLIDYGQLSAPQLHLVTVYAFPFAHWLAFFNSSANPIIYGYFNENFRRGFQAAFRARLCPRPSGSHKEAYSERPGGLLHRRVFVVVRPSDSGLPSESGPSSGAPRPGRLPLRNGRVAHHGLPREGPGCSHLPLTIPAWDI

Row | SMILES | % Agonist Activity (168 GPCRs [1]; Conc 1 uM) [%] | % Antagonist Activity (168 GPCRs [1]; Conc 1 uM) [%] | % Agonist Activity (168 GPCRs [1]; Conc 10 uM) [%] | % Antagonist Activity (168 GPCRs [1]; Conc 10 uM) [%] | % Agonist Activity (168 GPCRs [2]; 1 uM) [%] | % Antagonist Activity (168 GPCRs [2]; 1 uM) [%] | % Agonist Activity (168 GPCRs [2]; 10 uM) [%] | % Antagonist Activity (168 GPCRs [2]; 10 uM) [%] | % Agonist Activity (168 GPCRs [3]; EDG5, 1 uM) [%] | % Antagonist Activity (168 GPCRs [3]; EDG5, 1 uM) [%] | % Agonist Activity (168 GPCRs [3]; EDG5, 10 uM) [%] | % Antagonist Activity (168 GPCRs [3]; EDG5, 10 uM) [%] | % Agonist Activity (168 GPCRs [4]; 1 uM) [%] | % Antagonist Activity (168 GPCRs [4]; 1 uM) [%] | % Agonist Activity (168 GPCRs [4]; 10 uM) [%] | % Antagonist Activity (168 GPCRs [4]; 10 uM) [%] | % Agonist Activity (168 GPCRs [5]; CCR4, 1 uM) [%] | % Antagonist Activity (168 GPCRs [5]; CCR4, 1 uM) [%] | % Agonist Activity (168 GPCRs [5]; CCR4, 10 uM) [%] | % Antagonist Activity (168 GPCRs [5]; CCR4, 10 uM) [%] | also measured
1 | CNC(C)Cc1ccc2c(c1)OCO2 (stereo not shown) [MDMA, 3,4-Methylenedioxy methamphetamine, reference compound] | -3.2 | 17.7 | -5.5 | 20.8 | -0.1 | -2.2 | 0.4 | 0.7 | -1.1 | -0.5 | -1.5 | 0.6 | 0 | 2.5 | -0.3 | 6.4 | 0.1 | 7.7 | 0.1 | 13 | % Agonist Activity (168 GPCRs [6]; Conc 1 uM): -4.2%; % Antagonist Activity (168 GPCRs [6]; Conc 1 uM): 5.7%; % Agonist Activity (168 GPCRs [6]; Conc 10 uM): -7.2%; % Antagonist Activity (168 GPCRs [6]; Conc 10 uM): -0.6%; % Agonist Activity (168 GPCRs [7]; 1 uM): 1.1%; % Antagonist Activity (168 GPCRs [7]; 1 uM): -5.1%; % Agonist Activity (168 GPCRs [7]; 10 uM): 2.4%; % Antagonist Activity (168 GPCRs [7]; 10 uM): -0.9%; % Agonist Activity (168 GPCRs [8]; 1 uM): -2.1%; % Antagonist Activity (168 GPCRs [8]; 1 uM): 3.7%; % Agonist Activity (168 GPCRs [8]; 10 uM): 0.4%; % Antagonist Activity (168 GPCRs [8]; 10 uM): 1%
2 | CNC(C)C(=O)c1ccc2c(c1)OCO2 (stereo not shown) [methylone] | -4.6 | 32 | -5.6 | 27.1 | 0.1 | -4.3 | -0.3 | -3.3 | -4.7 | -3.4 | -3.7 | -6.3 | 0.7 | 17.5 | -0.1 | 10.9 | -0.5 | 10 | -1.4 | 9.5 | % Agonist Activity (168 GPCRs [6]; Conc 1 uM): -3.3%; % Antagonist Activity (168 GPCRs [6]; Conc 1 uM): 15.1%; % Agonist Activity (168 GPCRs [6]; Conc 10 uM): -4.1%; % Antagonist Activity (168 GPCRs [6]; Conc 10 uM): 17.5%; % Agonist Activity (168 GPCRs [7]; 1 uM): 0.8%; % Antagonist Activity (168 GPCRs [7]; 1 uM): -5.2%; % Agonist Activity (168 GPCRs [7]; 10 uM): -0.1%; % Antagonist Activity (168 GPCRs [7]; 10 uM): -6.4%; % Agonist Activity (168 GPCRs [8]; 1 uM): -8.7%; % Antagonist Activity (168 GPCRs [8]; 1 uM): 1.4%; % Agonist Activity (168 GPCRs [8]; 10 uM): -4.3%; % Antagonist Activity (168 GPCRs [8]; 10 uM): -0.3%
